Source: patent US9605029B2, “Antibody-binding peptide” (NATIONAL INSTITUTE OF ADVANCED INDUSTRIAL SCIENCE AND …, priority 2013, dated 2017)

System: Fc region (Jackson ImmunoResearch Laboratories, Inc.) labeled with horseradish peroxidase (HRP)
Experiment: ELISA of recombinant phages displaying polypeptides (Example 2, 6)
Format: binding, human
Conditions: recombinant T7 phage displaying the polypeptide, absorbance at 415 nm
Method: 6) In this section, it will be stated as an example that the binding activity of recombinant phages transformed by nucleic acids encoding amino acid sequences represented by SEQ ID NOs: 26, 27, 30 to 55, 57, 63 to 72 and 79 to 81 was measured by Enzyme Linked Immuno-Sorbent Assay (ELISA).
DNA molecules encoding amino acid sequences of SEQ ID NOs: 26, 27, 30 to 55, 57, 63 to 72 and 79 to 81 were amplified by a polymerase chain reaction (PCR) using KOD DNA polymerase (TOYOBO) under the reaction conditions according to the accompanying manual. Each of the amplified DNA was digested with restriction enzymes EcoRI and HindIII, and ligated to the 3′ terminal of g10 gene on T7 phage genomic DNA. Ligation to T7 phage genomic DNA was performed by use of a sample attached to T7Select10-3 Cloning Kit (Novagen) under the reaction conditions and in accordance with the procedure described in T7Select (registered trade mark) System Manual. Using T7 phage genomic DNA ligated, T7 phage was packaged in a test tube by T7Select Packaging Kit (Novagen) under the reaction conditions in accordance with T7Select (registered trade mark) System Manual (Novagen). Subsequently, phage plaque was formed in accordance with T7Select (registered trade mark) System Manual (Novagen). From each of the plaques, a recombinant phage displaying the polypeptide was isolated. To MICROTEST (registered trade mark) 96 (BECTON, DICKINSON AND COMPANY), a culture solution (0.2 mL) of Escherichia coli BL5403 strain cultured in LB medium until O.D.600 reached 1.0 was poured to infect with the Escherichia coli cells each of the recombinant phages isolated from plaques and allowed to stand still 37° C. for 12 hours to proliferate phages. The culture solution (10 μL) containing these phages was diluted in 90 μL of TBS buffer (50 mM Tris-HCl, 150 mM NaCl, pH 7.4) to prepare measurement samples.
The measurement samples were poured to MEDISORP 96 well microplate (Nunc) and allowed to stand still for one hour to allow the phage to physically adsorb to the plate. The supernatant was removed and SuperBlock (registered trade mark) T20 (TBS) Blocking Buffer (Thermo […]) (150 μL) was poured to the plate and allowed to stand still for one hour to block the surface of the plate. The plate was washed three times with TBS-T buffer (50 mM Tris-HCl, 150 mM NaCl, 0.1% Tween 20 (registered trade mark), pH 7.4). To the plate, TBS-T buffer (100 μL) containing an Fc region (Jackson ImmunoResearch Laboratories, Inc.) (0.2 μg/mL) labeled with horseradish peroxidase (HRP) was added and allowed to stand still for one hour. After the plate was washed three times with TBS-T buffer, ABTS One Component HRP Microwell Substrate (BioFX) (100 μL) was poured to the plate. The binding activity was detected through a […]. The absorbance at 415 nm (O.D.415) was measured by a microplate absorbance reader Sunrise R (TECAN GROUP LTD.). TBS-T buffer containing no phages was used as a negative control in a control experiment.
ELISA results of the recombinant phages displaying polypeptides containing amino acid sequences represented by SEQ ID NOs: 26, 27 and 30 to 55 and the recombinant phages displaying polypeptides containing amino acid sequences represented by SEQ ID NOs: 57, 63 to 72 and 79 to 81 are shown in Table 5A and Table 5B, respectively.

Substance: 34 (DAAWHLGELVWATYYDPETGTWEPDWSKMRPQ; IgG binding peptide, pep1) [compound 34]
- O.D. 415 (control 0.11): 0.281

Substance: 66 (WPLNAPSSAFYDPETGTWYDAAWHLGELVWATYYDPETGTWEPDWQRMLGQ; IgG binding peptide, p13) [compound 66]
- O.D. 415 (control 0.098): 0.182

Substance: 49 (DAAWHLGELVWATYYDPETGTWVPDWDTMHAAINRSFREV; Artificial Sequence, pep22; IgG binding peptide) [compound 49]
- O.D. 415 (control 0.11): 0.346

Substance: 69 (VVRVDHSSAVYDPETGTWYDAAWHLGELVWATYYDPETGTWEPDWQRMLGQ; IgG binding peptide, p20) [compound 69]
- O.D. 415 (control 0.098): 0.201

Substance: 33 (DAAWHLGELVWATYYDPETGTWVPDWERMKQH; IgG binding peptide, pep31) [compound 33]
- O.D. 415 (control 0.11): 0.305

Substance: 45 (DAAWHLGELVWATYYDPETGTWKPDWQRMKLH; IgG binding peptide, pep17) [compound 45]
- O.D. 415 (control 0.11): 0.249

Substance: 64 (IPYGFPGRGEYDPETGTWYDAAWHLGELVWATYYDPETGTWEPDWQRMLGQ; IgG binding peptide, p4) [compound 64]
- O.D. 415 (control 0.098): 0.213

Substance: 32 (DAAWHLGELVWATYYDPETGTWLPDWDVMVRQ; IgG binding peptide, pep27) [compound 32]
- O.D. 415 (control 0.11): 0.352

Substance: 70 (WMEFYPGRGVYDPETGTWYDAAWHLGELVWATYYDPETGTWEPDWQRMLGQ; IgG binding peptide, p26) [compound 70]
- O.D. 415 (control 0.098): 0.189

Substance: 30 (DAAWHLGELVWATYYDPETGTWEPDWKLMQRP; IgG binding peptide, pep7) [compound 30]
- O.D. 415 (control 0.11): 0.287

Substance: 53 (DAAWHLGELVWATYYDPETGTWKPDWQVMSPVSNRSFREV; IgG binding peptide, pep29) [compound 53]
- O.D. 415 (control 0.11): 0.279

Substance: 71 (DGVGPGSRGVYDPETGTWYDAAWHLGELVWATYYDPETGTWEPDWQRMLGQ; IgG binding peptide, p27) [compound 71]
- O.D. 415 (control 0.098): 0.219

Substance: 81 (LNDFLTPTAWYDPETGTWYDAAWHLGELVWATYYDPETGTWLPDWQTMAQK; IgG binding peptide, p31) [compound 81]
- O.D. 415 (control 0.098): 0.235

Substance: 72 (FVSSLPNSAMYDPETGTWYDAAWHLGELVWATYYDPETGTWEPDWQRMLGQ; IgG binding peptide, p28) [compound 72]
- O.D. 415 (control 0.098): 0.229

Substance: 48 (DAAWHLGELVWATYYDPETGTWQPDWSVMKSL; IgG binding peptide, pep20) [compound 48]
- O.D. 415 (control 0.11): 0.373

Substance: 54 (DAAWHLGELVWATYYDPETGTWQPDWEIMRPF; IgG binding peptide, pep30) [compound 54]
- O.D. 415 (control 0.11): 0.258

Substance: 63 (SNFVRSPSAWYDPETGTWYDAAWHLGELVWATYYDPETGTWEPDWQRMLGQ; IgG binding peptide, p2_2) [compound 63]
- O.D. 415 (control 0.098): 0.272

Substance: 57 (GPGISAFSPGRGVYDPETGTWYDAAWHLGELVWATYYDPETGTWEPDWQRMLGQ; IgG binding peptide, p17) [compound 57]
- O.D. 415 (control 0.098): 0.229

Substance: 43 (DAAWHLGELVWATYYDPETGTWVPDWDAMSSR; IgG binding peptide, pep15) [compound 43]
- O.D. 415 (control 0.11): 0.813

Substance: 46 (DAAWHLGELVWATYYDPETGTWLPDWSQMRPQ; IgG binding peptide, pep18) [compound 46]
- O.D. 415 (control 0.11): 0.243

Substance: 44 (DAAWHLGELVWATYYDPETGTWIPDWTRMQTW; IgG binding peptide, pep16) [compound 44]
- O.D. 415 (control 0.11): 0.243

Substance: 67 (VPPRFSSSAQYDPETGTWYDAAWHLGELVWATYYDPETGTWEPDWQRMLGQ; IgG binding peptide, p14) [compound 67]
- O.D. 415 (control 0.098): 0.25

Substance: 42 (DAAWHLGELVWATYYDPETGTWAPDWNRMRDFNRSFREV; IgG binding peptide, pep29) [compound 42]
- O.D. 415 (control 0.11): 0.273

Substance: 47 (DAAWHLGELVWATYYDPETGTWLPDWDTMTPR; IgG binding peptide, pep19) [compound 47]
- O.D. 415 (control 0.11): 0.255

Substance: 51 (DAAWHLGELVWATYYDPETGTWLPDWNLMGQH; IgG binding peptide, pep26) [compound 51]
- O.D. 415 (control 0.11): 0.265

Substance: 40 (DAAWHLGELVWATYYDPETGTWQPDWKRMTSR; IgG binding peptide, pep10) [compound 40]
- O.D. 415 (control 0.11): 0.251

Substance: 37 (DAAWHLGELVWATYYDPETGTWLPDWDYMSSK; IgG binding peptide, pep4) [compound 37]
- O.D. 415 (control 0.11): 0.235

Substance: 80 (LIPPGGISPWYDPETGTWYDAAWHLGELVWATYYDPETGTWEPDWQRMLGQ; IgG binding peptide, p25_2) [compound 80]
- O.D. 415 (control 0.098): 0.215

Substance: 27 (DAAWHLGELVWATYYDPETGTWEPDWQRMLGQ; IgG binding peptide, pep24) [compound 27]
- O.D. 415 (control 0.11): 0.289

Substance: 38 (DAAWHLGELVWATYYDPETGTWMPDWDRMLRR; IgG binding peptide, pep5) [compound 38]
- O.D. 415 (control 0.11): 0.29

Substance: 68 (FLVGLHAGAVYDPETGTWYDAAWHLGELVWATYYDPETGTWEPDWQRMLGQ; IgG binding peptide, p15_2) [compound 68]
- O.D. 415 (control 0.098): 0.186

Substance: 35 (DAAWHLGELVWATYYDPETGTWRPDWAVMATP; IgG binding peptide, pep2) [compound 35]
- O.D. 415 (control 0.11): 0.32

Substance: 52 (DAAWHLGELVWATYYDPETGTWRPDWARMEPM; IgG binding peptide, pep28) [compound 52]
- O.D. 415 (control 0.11): 0.25

Substance: 50 (DAAWHLGELVWATYYDPETGTWIPDWRAMSQF; IgG binding peptide, pep23) [compound 50]
- O.D. 415 (control 0.11): 0.244

Substance: 36 (DAAWHLGELVWATYYDPETGTWKPDWRMMGVP; IgG binding peptide, pep3) [compound 36]
- O.D. 415 (control 0.11): 0.287

Substance: 65 (GPYNIPDSAVYDPETGTWYDAAWHLGELVWATYYDPETGTWEPDWQRMLGQ; IgG binding peptide, p5) [compound 65]
- O.D. 415 (control 0.098): 0.291

Substance: 41 (DAAWHLGELVWATYYDPETGTWQPDWGRMNSK; IgG binding peptide, pep12) [compound 41]
- O.D. 415 (control 0.11): 0.274

Substance: 79 (GSCKFSSSCHYDPETGTWYDAAWHLGELVWATYYDPETGTWEPDWQRMLGQ; IgG binding peptide, p24_2) [compound 79]
- O.D. 415 (control 0.098): 0.329

Substance: 55 (EAWHLGELVWATYYDPETGTWRPDWSRMSGR; IgG binding peptide, pep11_2) [compound 55]
- O.D. 415 (control 0.11): 0.252

Substance: 26 (DAAWHLGELVWATYYDPETGTWLPDWQTMAQK; IgG binding peptide, pep21) [compound 26]
- O.D. 415 (control 0.11): 0.43

Substance: 39 (DAAWHLGELVWATYYDPETGTWTPDWNAMSQR; IgG binding peptide, pep6) [compound 39]
- O.D. 415 (control 0.11): 0.273

Substance: 31 (DAAWHLGELVWATYYDPETGTWQPDWDIMAGH; IgG binding peptide, pep25) [compound 31]
- O.D. 415 (control 0.11): 0.295
